25 compounds from patent US20230374038A1, “MODULATORS OF CYSTIC FIBROSIS TRANSMEMBRANE CONDUCTANCE REGULATOR” (VERTEX PHARMACEUTICALS INCORPORATED, priority 2020, published 2023) can be followed below.

For orientation: EC50 means the midpoint of the concentration-response curve.

The first experiment deals with T1, CFTR (Homo sapiens, UniProt P13569, DEL508-508).
T1 construct: endogenous in cells; host or cells: primary human bronchial epithelial cells, F508del/MF genotype
T1 sequence (P13569 with tags, fused parts or gaps DEL508-508): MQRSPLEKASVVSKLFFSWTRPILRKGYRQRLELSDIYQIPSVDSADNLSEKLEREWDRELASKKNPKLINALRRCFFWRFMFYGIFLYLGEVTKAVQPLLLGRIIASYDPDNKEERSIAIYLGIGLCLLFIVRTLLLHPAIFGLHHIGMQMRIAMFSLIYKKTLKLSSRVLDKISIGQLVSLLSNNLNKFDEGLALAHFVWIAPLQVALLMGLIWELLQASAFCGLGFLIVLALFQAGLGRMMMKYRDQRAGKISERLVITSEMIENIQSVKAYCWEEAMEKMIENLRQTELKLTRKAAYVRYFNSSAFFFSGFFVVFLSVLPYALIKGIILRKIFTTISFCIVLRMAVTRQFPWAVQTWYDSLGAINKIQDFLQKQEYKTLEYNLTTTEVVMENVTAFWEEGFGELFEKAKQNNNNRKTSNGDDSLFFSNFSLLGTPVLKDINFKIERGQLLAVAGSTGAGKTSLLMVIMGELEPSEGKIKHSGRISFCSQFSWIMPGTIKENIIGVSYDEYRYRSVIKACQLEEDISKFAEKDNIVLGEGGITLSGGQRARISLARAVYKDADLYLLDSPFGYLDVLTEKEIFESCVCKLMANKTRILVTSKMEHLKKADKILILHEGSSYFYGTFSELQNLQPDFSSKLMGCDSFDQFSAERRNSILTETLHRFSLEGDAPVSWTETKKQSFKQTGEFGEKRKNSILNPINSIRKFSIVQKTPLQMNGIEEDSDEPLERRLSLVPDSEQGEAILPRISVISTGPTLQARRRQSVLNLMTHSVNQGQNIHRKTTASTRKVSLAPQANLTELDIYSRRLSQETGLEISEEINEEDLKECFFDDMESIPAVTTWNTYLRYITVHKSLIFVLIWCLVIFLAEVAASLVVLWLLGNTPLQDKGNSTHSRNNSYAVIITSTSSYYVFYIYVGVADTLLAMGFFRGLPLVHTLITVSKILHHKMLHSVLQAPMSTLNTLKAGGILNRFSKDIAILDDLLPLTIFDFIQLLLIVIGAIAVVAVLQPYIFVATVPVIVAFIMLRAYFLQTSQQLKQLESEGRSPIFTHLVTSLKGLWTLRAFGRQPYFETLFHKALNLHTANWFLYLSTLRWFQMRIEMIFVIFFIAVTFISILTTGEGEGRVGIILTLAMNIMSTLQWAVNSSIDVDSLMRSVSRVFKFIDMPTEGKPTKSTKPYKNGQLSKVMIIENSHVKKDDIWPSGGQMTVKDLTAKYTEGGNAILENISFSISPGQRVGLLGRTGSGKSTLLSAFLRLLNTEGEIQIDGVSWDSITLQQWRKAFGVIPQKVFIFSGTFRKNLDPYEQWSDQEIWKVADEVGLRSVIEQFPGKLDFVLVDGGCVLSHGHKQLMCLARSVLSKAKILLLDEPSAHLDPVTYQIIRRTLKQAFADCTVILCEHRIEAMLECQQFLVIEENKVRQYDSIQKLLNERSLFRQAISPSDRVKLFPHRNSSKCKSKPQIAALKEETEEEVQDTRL
Description: HBE Assay: Ussing chamber assay of CFTR-mediated short-circuit currents in F508del/MF-HBE cells with 1 μM Ivacaftor. In kind it is cell-based. As to conditions: range of concentrations with 1 μM Ivacaftor, 18-24 hours, 20% human serum. The method, then: Ussing chamber experiments were performed using human bronchial epithelial (HBE) cells derived from CF subjects heterozygous for F508del and a minimal function CFTR mutation (F508del/MF-HBE) and cultured as previously described (Neuberger T, Burton B, Clark H, Van Goor F Methods Mol Biol 2011:741:39-54). After four days the apical media was removed, and the cells were grown at an air liquid interface for >14 days prior to use.
(§1) To isolate the CFTR-mediated short-circuit (ISC) current, F508del/MF-HBE grown on Costar® Snapwell™ cell culture inserts were mounted in an Ussing chamber and the transepithelial ISC was measured under voltage-clamp recording conditions (Vhold=0 mV) at 37° C. The basolateral solution contained (in mM) 145 NaCl, 0.83 K2HIPO4, 3.3 KH2PO4, 1.2 MgCl2, 1.2 CaCl2), 10 Glucose, 10 HEPES (pH adjusted to 7.4 with NaOH) and the apical solution contained (in mM) 145 NaGluconate, 1.2 MgCl2, 1.2 CaCl2), 10 glucose, 10 HEPES (pH adjusted to 7.4 with NaOH) and 30 μM amiloride to block the epithelial sodium channel. Forskolin (20 μM) was added to the apical surface to activate CFTR, followed by apical addition of a CFTR inhibitor cocktail consisting of BPO, GlyH-101, and CFTR inhibitor 172 (each at 20 μM final assay concentration) to specifically isolate CFTR currents. The CFTR-mediated ISC (μA/cm^2) for each condition was determined from the peak forskolin response to the steady-state current following inhibition.
The activity of the CFTR corrector compounds on the CFTR-mediated ISC was determined in Ussing chamber studies as described above. The F508del/MF-HBE cell cultures were either incubated with the corrector compounds at a range of concentrations in combination with 1 μM Ivacaftor or were incubated with the corrector compounds at a single fixed concentration of 10 μM in combination with 1 μM Ivacaftor for 18-24 hours at 37° C. and in the presence of 20% human serum. The concentration of corrector compounds with 1 μM Ivacaftor during the 18-24 hours incubations was kept constant throughout the Ussing chamber measurement of the CFTR-mediated ISC to ensure compounds were present throughout the entire experiment.
as §1, with “K2HPO4,” for “K2HIPO4,”
Consider `Cc1cccc(C)c1-c1nc2nc(c1C)OC[C@@H](CC(C)(C)C)N(Cc1cnc(C3CCOCC3)cn1)C(=O)c1cccc(c1)S(=O)(=O)N2` [Compound 331], for which the EC50 is less than 1 µM.
As for `Cc1cccc(C)c1-c1nc2nc(c1F)OC[C@@H](CC(C)C)N(Cc1ncc(N3CCC(C)(C)C3)cn1)C(=O)c1cccc(c1)S(=O)(=O)N2` [Compound 342], the EC50 is less than 1 µM.
Consider `Cc1cccc(C)c1-c1nc2nc(c1F)OC[C@@H](CC1CC1)N(Cc1ncc(OC(C)C)cn1)C(=O)c1cccc(c1)S(=O)(=O)N2` [Compound 343], for which the EC50 lay within 1 to 3 µM.

Staying with this experiment, now noted: single fixed concentration of 10 μM with 1 μM Ivacaftor, 18-24 hours, 20% human serum.
For the compound `Cc1cccc(C)c1-c1nc2nc(c1C)OC[C@@H](CC1CCC1)N(Cc1ncc(OC(C)C)cn1)C(=O)c1cccc(c1)S(=O)(=O)N2` [Compound 355], the “HBE Activity at 10 μM (%)” value was “+++ (+++ is >60%)”.

Staying with this experiment, now noted: single fixed concentration of 10 μM, with 1 μM Ivacaftor, 20% human serum.
Regarding `Cc1cccc(CC(C)C)c1-c1nc2nc(c1C)OC[C@@H](CC(C)C)N(Cc1nccc(N(C)C(C)C)n1)C(=O)c1cccc(c1)S(=O)(=O)N2` (atropisomer, axis not shown) [Compound 231], the “HBE Activity at 10 μM” value was “+++ (+++ is >600%)”.
With `Cc1cccc(CC(C)C)c1-c1nc2nc(c1C)OC[C@@H](CC(C)(C)C)NC(=O)c1cccc(c1)S(=O)(=O)N2` (atropisomer, axis not shown) [Compound 227], the “HBE Activity at 10 μM” value is reported as “+++ (+++ is >600%)”.
Turning to `Cc1cccc(C)c1-c1nc2nc(c1C)OC[C@@H](C(C)C)N(Cc1ncc(OC(C)C)cn1)C(=O)c1cccc(c1)S(=O)(=O)N2` [Compound 197], the “HBE Activity at 10 μM” value is recorded as “+++ (+++ is >600%)”.
Still for that read-out and setting: the result for `Cc1cccc(C)c1-c1nc2nc(c1C)OC[C@@H](CC(C)(C)C)N(Cc1ncc(N3CCC(C)(C)CC3)cn1)C(=O)c1cccc(c1)S(=O)(=O)N2` [Compound 192] reads “+++ (+++ is >600%)”.

The experiment is the same for the next values; noted with them: with 1 μM Ivacaftor, 18-24 hours, 20% human serum.
On to `Cc1cccc(CC(C)C)c1-c1nc2nc(c1C)OC[C@@H](CC(C)(C)C)N(Cc1ncc(N(C)CC(C)(C)C)cn1)C(=O)c1cccc(c1)S(=O)(=O)N2` (single isomer, unassigned) [Compound 211], for which the EC50 is less than 1 µM and the “HBE Max Activity” value is “+++ (+++ is >600%)”.
Taken in the same sequence, the figures for `Cc1cccc(CC2CCCC2)c1-c1nc2nc(c1C)OC[C@@H](CC(C)(C)C)N(Cc1ncc(N3CCOCC3)cn1)C(=O)c1cccc(c1)S(=O)(=O)N2` (atropisomer, axis not shown) [Compound 281] were less than 1 µM and “+++ (+++ is >600%)”.
The like results for `Cc1cccc(CC(C)C)c1-c1nc2nc(c1C)OC[C@@H](CC(C)C)N(Cc1cccc(N3CCC[C@H]3C)n1)C(=O)c1cccc(c1)S(=O)(=O)N2` (atropisomer, axis not shown) [Compound 237] were, in that order, less than 1 µM and “+++ (+++ is >600%)”.
As to `Cc1cccc(CC(C)C)c1-c1nc2nc(c1C)OC[C@@H](CC(C)C)N(Cc1ncc(N3CCC(C)(C)C3)cn1)C(=O)c1cccc(c1)S(=O)(=O)N2` (atropisomer, axis not shown) [Compound 241], the EC50 was less than 1 µM and the “HBE Max Activity” value is “+++ (+++ is >600%)”.
On to `Cc1ccnc(CN2C(=O)c3cccc(c3)S(=O)(=O)Nc3nc(c(C)c(-c4c(C)cccc4CC4CCCCC4)n3)OC[C@H]2CC(C)(C)C)n1` (atropisomer, axis not shown) [Compound 258], for which the EC50 is less than 1 µM and the “HBE Max Activity” value is given as “+++ (+++ is >600%)”.
The like results for `Cc1cccc(CC2CCCCC2)c1-c1nc2nc(c1C)OC[C@@H](CC(C)(C)C)N(Cc1ncc(N(C)CC(C)(C)C)cn1)C(=O)c1cccc(c1)S(=O)(=O)N2` (atropisomer, axis not shown) [Compound 282] were, in that order, 1 to 3 µM and “+++ (+++ is >600%)”.
The like results for `Cc1cccc(CC2CCCCC2)c1-c1nc2nc(c1C)OC[C@@H](CC(C)(C)C)N(Cc1nccc(N3CCOCC3)n1)C(=O)c1cccc(c1)S(=O)(=O)N2` (atropisomer, axis not shown) [Compound 263] were, in that order, less than 1 µM and “+++ (+++ is >600%)”.
Turning to `Cc1cccc(CC2CCCCC2)c1-c1nc2nc(c1C)OC[C@@H](CC(C)(C)C)N(Cc1ncc(N3CCC(C)(C)C3)cn1)C(=O)c1cccc(c1)S(=O)(=O)N2` (atropisomer, axis not shown) [Compound 254], the EC50 lay in the range of 1 to 3 µM and the “HBE Max Activity” value is “+++ (+++ is >600%)”.
Taken in the same sequence, the figures for `Cc1cccc(CC2CCCCC2)c1-c1nc2nc(c1C)OC[C@@H](CC(C)(C)C)N(Cc1ncccc1N1CCOCC1)C(=O)c1cccc(c1)S(=O)(=O)N2` (atropisomer, axis not shown) [Compound 309] were less than 1 µM and “+++ (+++ is >600%)”.
Taken in the same sequence, the figures for `Cc1cccc(CC2CCCCC2)c1-c1nc2nc(c1C)OC[C@@H](CC(C)(C)C)N(Cc1cccc(N(C(C)C)C(C)C)n1)C(=O)c1cccc(c1)S(=O)(=O)N2` (atropisomer, axis not shown) [Compound 256] were less than 1 µM and “+++ (+++ is >600%)”.
Turning to `Cc1cccc(CC2CCCCC2)c1-c1nc2nc(c1C)OC[C@@H](CC(C)(C)C)N(Cc1ncc(C3CCOCC3)cn1)C(=O)c1cccc(c1)S(=O)(=O)N2` [Compound 251], the EC50 is less than 1 µM and the “HBE Max Activity” value was “+++ (+++ is >600%)”.
Turning to `Cc1cccc(CC2CCCCC2)c1-c1nc2nc(c1C)OC[C@@H](CC(C)(C)C)N(Cc1nccc(N(C)C)n1)C(=O)c1cccc(c1)S(=O)(=O)N2` (atropisomer, axis not shown) [Compound 261], the EC50 is less than 1 µM and the “HBE Max Activity” value is “+++ (+++ is >600%)”.
As to `Cc1cccc(CC(C)C)c1-c1nc2nc(c1C)OC[C@@H](C)N(Cc1ncc(N3CCC(C)(C)C3)cn1)C(=O)c1cccc(c1)S(=O)(=O)N2` (atropisomer, axis not shown) [Compound 242], the EC50 is less than 1 µM and the “HBE Max Activity” value is on record as “+++ (+++ is >600%)”.
The like results for `Cc1cccc(CC(C)C)c1-c1nc2nc(c1C)OC[C@@H](CC(C)(C)C)N(Cc1ncc(N3CCOCC3)cn1)C(=O)c1cccc(c1)S(=O)(=O)N2` (atropisomer, axis not shown) [Compound 295] were, in that order, less than 1 µM and “+++ (+++ is >600%)”.
As to `Cc1cccc(CC2CCCC2)c1-c1nc2nc(c1C)OC[C@@H](CC(C)(C)C)N(Cc1ncc(N3CCOCC3)cn1)C(=O)c1cccc(c1)S(=O)(=O)N2` (atropisomer, axis not shown) [Compound 280], the EC50 is less than 1 µM and the “HBE Max Activity” value is “+++ (+++ is >600%)”.
Turning to `Cc1cccc(CC(C)C)c1-c1nc2nc(c1C)OC[C@@H](CC(C)C)N(Cc1ncc(CC(C)C)cn1)C(=O)c1cccc(c1)S(=O)(=O)N2` (atropisomer, axis not shown; (P)) [Compound 219, (5P,11R)-11-isobutyl-6-(2-isobutyl-6-methyl-phenyl)-12-[(5-isobutylpyrimidin-2-yl)methyl]-7-methyl-2,2-dioxo-9-oxa-2^6-thia-3,5,12,19-tetrazatricyclo[12.3.1.14,8]nonadeca-1(18),4(19),5,7,14,16-hexaen-13-one], the EC50 was less than 1 µM and the “HBE Max Activity” value is “+++ (+++ is >600%)”.
For `Cc1cccc(CC2CCCCC2)c1-c1nc2nc(c1C)OC[C@@H](CC(C)(C)C)N(Cc1ncc(C3CCCCC3)cn1)C(=O)c1cccc(c1)S(=O)(=O)N2` (atropisomer, axis not shown) [Compound 276], the EC50 was less than 1 µM and the “HBE Max Activity” value is listed as “+++ (+++ is >600%)”.

Still in this experiment, the particulars now being: with 1 μM Ivacaftor, 18-24 hours, 20% human serum, compared to known Vertex corrector with 18 μM Tezacaftor and 1 μM Ivacaftor, read-out: HBE Max activity (%).
Regarding `Cc1cccc(C)c1-c1nc2nc(c1C)OC[C@@H](CC(C)(C)C)N(Cc1cnc(C3CCOCC3)cn1)C(=O)c1cccc(c1)S(=O)(=O)N2` [Compound 331], the Emax is more than 60%.
With `Cc1cccc(C)c1-c1nc2nc(c1F)OC[C@@H](CC(C)C)N(Cc1ncc(N3CCC(C)(C)C3)cn1)C(=O)c1cccc(c1)S(=O)(=O)N2` [Compound 342], the Emax is more than 60%.
Still for that read-out and setting: next, `Cc1cccc(C)c1-c1nc2nc(c1F)OC[C@@H](CC1CC1)N(Cc1ncc(OC(C)C)cn1)C(=O)c1cccc(c1)S(=O)(=O)N2` [Compound 343]: more than 60%.
